According to US10329336B2, “Antimicrobial kinocidin compositions and methods of use” (LA Biomedical Research Institute at Harbor-UCLA Medical …, priority 2006, dated 2019):

Legend:
[1] = test system: Candida albicans (ATCC 36082); assay: Solid-phase antimicrobial assay of kinocidins; format: cell-based; conditions: C. albicans; pH 5.5 or 7.5, not separated; 0.5 nmol/well
Method: (§1) Peptides (0.5 nmol) were introduced into wells in agarose plates buffered with MES (2.0 mM, pH 5.5) or PIPES (10.0 mM, pH 7.5). Antimicrobial activity was assessed as the zone of complete (blue) or partial (red) inhibition around the well. Abbreviations are: Native IL-8 (IL-8); IL-8α, (α); IL-8γ, (γ); IL-8α+IL-8γ (α+γ); RANTES, (RAN); GRO-α, (GRO); MCP-1, (MCP); lymphotactin, (LYM); platelet factor-4, (PF-4); and HNP-1, (HNP). Histograms are means±SEM (minimum n=2).
(§2) Briefly, the antimicrobial assays were performed against a panel of prototype human pathogens as previously detailed (Yoshimura, T., Matsushima, K., Tanaka, S., Robinson, E. A., Appella, E., Oppenheim, J. J. & Leonard, E. J. (1987) Proc Natl Acad Sci USA 84, 9233-7): Staphylococcus aureus (ATCC 27217; Gram-positive bacterium); Salmonella typhimurium (5996s; Gram-negative bacterium); and the fungus Candida albicans (ATCC 36082). Defensin HNP-1 was included in each assay as an internal control, and all assays were conducted a minimum of two independent times. Results of independent assays were analyzed using Wilcoxon Rank Sum analysis with Bonferroni correction for multiple comparisons.
(§3) For the Solid-Phase Assay, mid-logarithmic phase organisms were prepared, introduced into buffered agarose (PIPES [10 mM, pH 7.5] or MES [2.0 mM, pH 5.5]) to achieve final inocula of 10^6 CFU/ml, and poured into plates. Peptides (0.5 nmol/well [50 nmol/ml]) were added to wells in the seeded matrix, and incubated for 3h at 37° C. Nutrient overlay medium was applied, and assays incubated at 37° C. or 30° C. for bacteria or fungi, respectively. After 24h, zones of inhibition were measured, and results recorded as zones of complete or partial inhibition.

[2] = test system: Salmonella typhimurium (5996s); assay: Solid-phase antimicrobial assay of kinocidins; format: cell-based; conditions: S. typhimurium (Gram-negative); pH 5.5 or 7.5, not separated; 0.5 nmol/well
Method: as §1, §2, §3

[3] = test system: Staphylococcus aureus (ATCC 27217); assay: Solid-phase antimicrobial assay of kinocidins; format: cell-based; conditions: S. aureus (Gram-positive); pH 5.5 or 7.5, not separated; 0.5 nmol/well
Method: as §1, §2, §3

C. albicans ATCC 36082 = assay: Solution-phase microbicidal assay; format: cell-based, Candida albicans
Method: One million CFU of the indicated microorganism per milliliter were incubated with peptide (0.00125-20.0 nmol/ml) in either MES (2.0 mM, pH 5.5) or PIPES (10.0 mM, pH 7.5) for one hour at 37° C. Surviving CFU were enumerated and are described as change in the initial log 10 CFU. ∘, S. aureus ATCC 27217; ●, S. typhimurium strain 5990s; □, C. albicans ATCC 36082. Data are means±SD (minimum n=2).
as §2
To characterize IL-8's antimicrobial activity in more detail, a quantitative solution-phase assay was carried out at pH 5.5 and 7.5. Organisms were prepared and adjusted to 10^6 CFU/ml in PIPES or MES buffer as above but lacking agarose, and dispensed (5×10^4 CFU per 50 μl aliquot). Peptide (concentration range, 20-0.00125 nmol/ml) was introduced into the assay medium, and incubated for 1 hour at 37° C. After incubation, media were serially diluted and plated in triplicate for enumeration. […] IL-8 was also fungicidal for C. albicans at pH 7.5, with a 2-log reduction in surviving CFU over 1 hour at a concentration of 2.5 nmol/ml.

[4] = test system: Escherichia coli strain ML-35; assay: Ex vivo biomatrix assay in human whole blood, plasma and serum; format: cell-based
Text: FIG. 18A-B show antimicrobial efficacy of IL-8α in human blood and blood-derived matrices as compared with artificial media (MHB) at pH 5.5 and 7.2. […] The E. coli inocula (INOC) were 10^5 CFU/ml, and the threshold of sensitivity was considered 0.3 log 10 CFU/ml.
To assess the physiological relevance of the observed in vitro (solid and solution-phase) antimicrobial activity for IL-8 and IL-8α, we assessed the efficacy of IL-8α in the ex vivo biomatrix assay. This assay has been developed to assess antimicrobial polypeptide efficacy in complex human blood matrices. Antimicrobial activity of IL-8α in human whole blood and homologous plasma and serum fractions was assessed (Yeaman, M. R., Gank, K. D., Bayer, A. S., and Brass, E. P. (2002) Antimicrob Agents Chemother 46, 3883-3891). For biomatrix studies, the well-characterized Escherichia coli strain ML-35 was used as the target organism (Lehrer, R. I., Barton, A., Daher, K, A., Harwig, S. S., Ganz, T., and Selsted, M. E. (1989) J Clin Invest 84, 553-561). This strain is resistant to serum, ideal for use in assessing peptide antimicrobial activity in blood and blood-derived matrices (Yeaman, M. R., Gank, K. D., Bayer, A. S., and Brass, E. P. (2002) Antimicrob Agents Chemother 46, 3883-3891). Organisms were cultured to mid-logarithmic phase in brain-heart infusion broth (Difco Laboratories, Detroit, Mich.) at 37° C., washed, and resuspended in PBS (Irvine Scientific; pH 7.2). Inocula were quantified spectrophotometrically and validated by quantitative culture. Biomatrices were distributed in 85-l aliquots into 96-well microtiter plates (Corning Glass Works, Corning, N.Y.) Peptide (5l; concentration range 1.0-50.0 μg/ml) was added either simultaneously with the microorganism (10 μl; 10^5 CFU/ml), or after a 120 min pre-incubation period in the biomatrix. The mixtures were incubated with constant agitation for 2 h at 37° C. After incubation, aliquots were diluted and quantitatively cultured in triplicate onto blood agar. Surviving organisms were enumerated as CFU/ml. […]

KENWVQRVVEKFLKRAENS [IL-8α, synthetic α-helix domain of IL-8 (CXCL8)]
antifungal activity (zone of inhibition) [1]: virtually indistinguishable from that of the native molecule | antimicrobial activity (zone of inhibition) [2]: virtually indistinguishable from that of the native molecule | antimicrobial activity (zone of inhibition) [3]: virtually indistinguishable from that of the native molecule | activity relative to native IL-8, by mass (C. albicans ATCC 36082; C. albicans, solution-phase): 10 fold | reduction in surviving C. albicans (C. albicans ATCC 36082; pH 5.5, 0.125 nmol/ml (1.0 μg/ml), 1 hour exposure): five | decrease in E. coli CFU ([4]; 10 μg/ml peptide, human blood and blood-derived matrices, 2 h at 37° C.): ≤ 5 log CFU/ml | antimicrobial efficacy in biomatrix ([4]; plasma fractions or after 2 hour preincubation): less activity | antimicrobial efficacy in biomatrix ([4]; whole blood and serum, co-incubation): Greatest efficacy
